The values below come from PMC7009786 (ACS biomaterials science & engineering, 2018).

For data set [1], the system named is ovarian cancer-derived cell lines. The class given is cell-based.
In data set [2] the test system is ES-2 cells. Put plainly: Cell viability after 72 h incubation. The class given is cell-based. As to conditions: ES-2 (Pt-sensitive), 18.4 μM, mean of N=3, Pt-NLS purity 87%.
Data set [3] relates to TOV-21G cells. Put plainly: Cell viability after 72 h incubation. Format: cell-based. As to conditions: TOV-21G (Pt-sensitive), 56.6 μM, mean of N=3, Pt-NLS purity 87%.
For data set [4] the following is noted: after 150 days; cited from earlier work.

Take PKKKRKV [Pt-NLS hybrid]: in data set [1], the “cytotoxicity in vitro (in words)” value is “high cytotoxicity, significantly superior to carboplatin”. Further, the “decrease of cell viability” value was ~ 30% in data set [2] and ~ 50% in data set [3].

On to `O=C1[O][Pt]2([NH][C@@H]3CCCC[C@H]3[NH]2)[O]C1=O` [oxaliplatin], for which, in data set [4], the hydrolysed species was 3%.

For `N.N.O=C([O-])C1(C(=O)[O-])CCC1.[Pt+2]` [carboplatin, Carboplatin], the “decrease of cell viability” value in data set [2] is 20%; in data set [3], 40%. In addition, the hydrolysed species in data set [4] is recorded as 3%.
